{"source": "patent US10681909B2", "about": "“Herbicidal triazoles” (FMC Corporation, priority 2014, dated 2020)", "key": {"[1]": {"tested_on": "morningglory", "experiment": "Test C postemergence", "type": "in vivo, Ipomoea coccinea", "summary_of_the_method": "(§1)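 Test chemicals in a non-phytotoxic solvent mixture with surfactant were applied to pots of plants at 2 to 18 cm (1- to 4-leaf stage) for postemergence treatment, grown in a peat-based medium with vermiculite, starter nutrients and dolomitic limestone. Preemergence treatment was to seeds freshly planted in loam soil mixed with sand.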"}, "[2]": {"tested_on": "ducksalad", "experiment": "Test B flooded paddy test", "type": "in vivo, Heteranthera limosa", "details": "Heteranthera limosa, 360 h, 250 g ai/ha, applied to paddy water at 2-leaf stage, visual rating after 13 to 15 d, scale 0 (no effect) to 100 (complete control), read-out: Plant response rating, Ducksalad, Flood", "summary_of_the_method": "(§2)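 Pots were flooded to 3 cm above the soil at treatment, and compounds were applied directly into the paddy water. That depth was held throughout. After 13 to 15 d in a greenhouse, plants were rated visually against untreated controls.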"}, "[3]": {"tested_on": "barnyardgrass", "experiment": "Test C postemergence", "type": "in vivo, Echinochloa crus-galli", "summary_of_the_method": "as §1"}, "[4]": {"tested_on": "sedge, umbrella", "experiment": "Test B flooded paddy test", "type": "in vivo, Cyperus difformis", "details": "Cyperus difformis, 360 h, 250 g ai/ha, applied to paddy water at 2-leaf stage, visual rating after 13 to 15 d, scale 0 (no effect) to 100 (complete control), read-out: Plant response rating, Sedge, Umbrella, Flood", "summary_of_the_method": "as §2"}, "[5]": {"tested_on": "barnyardgrass", "experiment": "Test B flooded paddy test", "type": "in vivo, Echinochloa crus-galli", "details": "Echinochloa crus-galli, 360 h, 250 g ai/ha, applied to paddy water at 2-leaf stage, visual rating after 13 to 15 d, scale 0 (no effect) to 100 (complete control), read-out: Plant response rating, Barnyardgrass, Flood", "summary_of_the_method": "as §2"}, "[6]": {"tested_on": "chickweed", "experiment": "Test C postemergence", "type": "in vivo, Stellaria media", "summary_of_the_method": "as §1"}, "[7]": {"tested_on": "foxtail, giant", "experiment": "Test C postemergence", "type": "in vivo, Setaria faberii", "summary_of_the_method": "as §1"}, "[8]": {"tested_on": "ragweed", "experiment": "Test C postemergence", "type": "in vivo, Ambrosia elatior", "summary_of_the_method": "as §1"}, "[9]": {"tested_on": "blackgrass", "experiment": "Test C postemergence", "type": "in vivo, Alopecurus myosuroides", "summary_of_the_method": "as §1"}, "[10]": {"tested_on": "kochia", "experiment": "Test C postemergence", "type": "in vivo, Kochia scoparia", "summary_of_the_method": "as §1"}, "[11]": {"tested_on": "oat, wild", "experiment": "Test C postemergence", "type": "in vivo, Avena fatua", "summary_of_the_method": "as §1"}, "[12]": {"tested_on": "velvetleaf", "experiment": "Test A postemergence", "type": "in vivo, Abutilon theophrasti", "details": "Abutilon theophrasti, post-emergence, 240 h, 0 to 100 scale (0 no effect, 100 complete control), approx. 10 d, read-out: Plant response rating, Velvetleaf", "summary_of_the_method": "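Loam/sand soil mix; compound in non-phytotoxic solvent + surfactant. Pre: directed soil spray right after planting seed. Post: potted plants 2–10 cm, 1–2 leaf stage, sprayed with same formulation.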"}, "[13]": {"tested_on": "johnsongrass", "experiment": "Test C postemergence", "type": "in vivo, Sorghum halepense", "summary_of_the_method": "as §1"}, "[14]": {"tested_on": "crabgrass, large", "experiment": "Test C preemergence", "type": "in vivo, Digitaria sanguinalis", "details": "for Plant response rating (scale of 0 to 100 where 0 is no effect and 100 is complete control): Crabgrass, Large, preemergence; for Crabgrass, Large plant response rating (0 to 100): Preemergence, visual rating after 13 to 15 d", "summary_of_the_method": "as §1"}}}
{"compound": "CCCc1nc(-c2ccc(F)cc2)nn1Cc1ccnc(C(F)(F)F)c1", "note": "[Compound 6, 4-[[3-(4-fluorophenyl)-5-propyl-1H-1,2,4-triazol-1-yl]methyl]-2-(trifluoromethyl)pyridine]", "values": [{"measurement": "Plant response rating (scale of 0 to 100 where 0 is no effect and 100 is complete control)", "setting": "[1]; 31 g ai/ha", "value": 90}, {"measurement": "Plant response rating (scale of 0 to 100 where 0 is no effect and 100 is complete control)", "setting": "[1]; 62 g ai/ha", "value": 95}, {"measurement": "Plant response rating (scale of 0 to 100 where 0 is no effect and 100 is complete control)", "setting": "[1]; 125 g ai/ha", "value": 98}, {"measurement": "pest or weed control at 250 g/ha", "setting": "[2]", "value": 70, "unit": "%"}, {"measurement": "Plant response rating (scale of 0 to 100 where 0 is no effect and 100 is complete control)", "setting": "[3]; 31 g ai/ha", "value": 20}, {"measurement": "Plant response rating (scale of 0 to 100 where 0 is no effect and 100 is complete control)", "setting": "[3]; 62 g ai/ha", "value": 20}, {"measurement": "Plant response rating (scale of 0 to 100 where 0 is no effect and 100 is complete control)", "setting": "[3]; 125 g ai/ha", "value": 25}, {"measurement": "Plant response rating (scale of 0 to 100 where 0 is no effect and 100 is complete control)", "setting": "[3]; 250 g ai/ha", "value": 40}, {"measurement": "pest or weed control at 250 g/ha", "setting": "[4]", "value": 80, "unit": "%"}, {"measurement": "pest or weed control at 250 g/ha", "setting": "[5]", "value": 40, "unit": "%"}, {"measurement": "Plant response rating (scale of 0 to 100 where 0 is no effect and 100 is complete control)", "setting": "[6]; 31 g ai/ha", "value": 70}, {"measurement": "Plant response rating (scale of 0 to 100 where 0 is no effect and 100 is complete control)", "setting": "[6]; 62 g ai/ha", "value": 80}, {"measurement": "Plant response rating (scale of 0 to 100 where 0 is no effect and 100 is complete control)", "setting": "[6]; 125 g ai/ha", "value": 85}, {"measurement": "Plant response rating (scale of 0 to 100 where 0 is no effect and 100 is complete control)", "setting": "[6]; 250 g ai/ha", "value": 95}, {"measurement": "Plant response rating (scale of 0 to 100 where 0 is no effect and 100 is complete control)", "setting": "[7]; 31 g ai/ha", "value": 40}, {"measurement": "Plant response rating (scale of 0 to 100 where 0 is no effect and 100 is complete control)", "setting": "[7]; 62 g ai/ha", "value": 40}, {"measurement": "Plant response rating (scale of 0 to 100 where 0 is no effect and 100 is complete control)", "setting": "[7]; 125 g ai/ha", "value": 45}, {"measurement": "Plant response rating (scale of 0 to 100 where 0 is no effect and 100 is complete control)", "setting": "[7]; 250 g ai/ha", "value": 75}, {"measurement": "Plant response rating (scale of 0 to 100 where 0 is no effect and 100 is complete control)", "setting": "[8]; 31 g ai/ha", "value": 75}, {"measurement": "Plant response rating (scale of 0 to 100 where 0 is no effect and 100 is complete control)", "setting": "[8]; 62 g ai/ha", "value": 75}, {"measurement": "Plant response rating (scale of 0 to 100 where 0 is no effect and 100 is complete control)", "setting": "[8]; 250 g ai/ha", "value": 80}, {"measurement": "Plant response rating (scale of 0 to 100 where 0 is no effect and 100 is complete control)", "setting": "[9]; 31 g ai/ha", "value": 5}, {"measurement": "Plant response rating (scale of 0 to 100 where 0 is no effect and 100 is complete control)", "setting": "[9]; 62 g ai/ha", "value": 5}, {"measurement": "Plant response rating (scale of 0 to 100 where 0 is no effect and 100 is complete control)", "setting": "[9]; 125 g ai/ha", "value": 5}, {"measurement": "Plant response rating (scale of 0 to 100 where 0 is no effect and 100 is complete control)", "setting": "[9]; 250 g ai/ha", "value": 10}, {"measurement": "Plant response rating (scale of 0 to 100 where 0 is no effect and 100 is complete control)", "setting": "[10]; 31 g ai/ha", "value": 90}, {"measurement": "Plant response rating (scale of 0 to 100 where 0 is no effect and 100 is complete control)", "setting": "[10]; 62 g ai/ha", "value": 90}, {"measurement": "Plant response rating (scale of 0 to 100 where 0 is no effect and 100 is complete control)", "setting": "[10]; 125 g ai/ha", "value": 90}, {"measurement": "Plant response rating (scale of 0 to 100 where 0 is no effect and 100 is complete control)", "setting": "[10]; 250 g ai/ha", "value": 90}, {"measurement": "Plant response rating (scale of 0 to 100 where 0 is no effect and 100 is complete control)", "setting": "[11]; 31 g ai/ha", "value": 5}, {"measurement": "Plant response rating (scale of 0 to 100 where 0 is no effect and 100 is complete control)", "setting": "[11]; 62 g ai/ha", "value": 5}, {"measurement": "Plant response rating (scale of 0 to 100 where 0 is no effect and 100 is complete control)", "setting": "[11]; 125 g ai/ha", "value": 10}, {"measurement": "Plant response rating (scale of 0 to 100 where 0 is no effect and 100 is complete control)", "setting": "[11]; 250 g ai/ha", "value": 10}, {"measurement": "pest or weed control at 125 g/ha", "setting": "[12]; 125 g ai/ha", "value": 90, "unit": "%"}, {"measurement": "pest or weed control at 500 g/ha", "setting": "[12]; 500 g ai/ha", "value": 100, "unit": "%"}, {"measurement": "Plant response rating (scale of 0 to 100 where 0 is no effect and 100 is complete control)", "setting": "[13]; 31 g ai/ha", "value": 10}, {"measurement": "Plant response rating (scale of 0 to 100 where 0 is no effect and 100 is complete control)", "setting": "[13]; 62 g ai/ha", "value": 10}, {"measurement": "Plant response rating (scale of 0 to 100 where 0 is no effect and 100 is complete control)", "setting": "[13]; 125 g ai/ha", "value": 15}, {"measurement": "Plant response rating (scale of 0 to 100 where 0 is no effect and 100 is complete control)", "setting": "[13]; 250 g ai/ha", "value": 35}, {"measurement": "Plant response rating (scale of 0 to 100 where 0 is no effect and 100 is complete control)", "setting": "[14]; 125 g ai/ha", "value": 100}, {"measurement": "Plant response rating (scale of 0 to 100 where 0 is no effect and 100 is complete control)", "setting": "[14]; 250 g ai/ha", "value": 100}, {"measurement": "Crabgrass, Large plant response rating (0 to 100)", "setting": "[14]; 31 g ai/ha", "value": 100}, {"measurement": "Crabgrass, Large plant response rating (0 to 100)", "setting": "[14]; 62 g ai/ha", "value": 100}]}
